Measured values from patent US7612064B2, “Sulfopyrroles” (Takeda Pharmaceutical Company Limited, priority 2003, dated 2009).

Assays:
[1] = Hoechst 33342 nuclear staining; assay type: cell-based; conditions: for Hoechst 33342 nuclear staining score, H460: H460 cells; for Hoechst 33342 nuclear staining score, HeLa: HeLa cells; for Hoechst 33342 nuclear staining score, Jily: Jily cells; for Hoechst 33342 nuclear staining score, Jurkat: Jurkat cells; for Hoechst 33342 nuclear staining score, MRC5: MRC5 cells; for Hoechst 33342 nuclear staining score, PBLs: key: 0: no activity; 1: weak activity comprising less than 50% of the cells; 2: strong activity comprising more than 50% of the cells;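 for all read-outs here: apoptotic nuclei scored 0 none 1 weak under 50% of cells 2 strong over 50% of cells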
Outline: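 Cells were plated in 96 well tissue culture plates in 80 μl complete medium, with 3-5*10^3 cells per well for adherent lines and 8-10*10^3 for suspension lines. Adherent cells spread for 24 h before treatment, while suspension cells were treated right after seeding. Compounds were added in 20 μl complete medium containing max 5% DMSO.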

Jily = assay: MTS proliferation assay; assay type: cell-based; conditions: 72 h
Outline: (§1)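 Four-point treatment (0.3–10 μM final) ran 72 h in complete medium, with the compound-containing addition holding no more than 5% DMSO. Metabolic activity was then developed with MTS reagent over 3 h and quantified by absorbance (492 nm).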

MRC5 = assay: MTS proliferation assay; assay type: cell-based; conditions: MRC5, 72 h
Outline: as §1

HeLa = assay: MTS proliferation assay; assay type: cell-based, human; conditions: 72 h
Outline: as §1

Jurkat = assay: MTS proliferation assay; assay type: cell-based, human; conditions: 72 h
Outline: as §1

| Compound | Hoechst 33342 nuclear staining score, H460 ([1]; conc 0.1) | Hoechst 33342 nuclear staining score, H460 ([1]; conc 0.3) | Hoechst 33342 nuclear staining score, H460 ([1]; conc 1) | Hoechst 33342 nuclear staining score, H460 ([1]; conc 3) | Hoechst 33342 nuclear staining score, HeLa ([1]; conc 0.1) | Hoechst 33342 nuclear staining score, HeLa ([1]; conc 0.3) | Hoechst 33342 nuclear staining score, HeLa ([1]; conc 1) | Hoechst 33342 nuclear staining score, HeLa ([1]; conc 3) | Hoechst 33342 nuclear staining score, Jily ([1]; conc 0.1) | Hoechst 33342 nuclear staining score, Jily ([1]; conc 0.3) | Hoechst 33342 nuclear staining score, Jily ([1]; conc 1) | Hoechst 33342 nuclear staining score, Jily ([1]; conc 3) | Hoechst 33342 nuclear staining score, Jurkat ([1]; conc 0.1) | Hoechst 33342 nuclear staining score, Jurkat ([1]; conc 0.3) | Hoechst 33342 nuclear staining score, Jurkat ([1]; conc 1) | Hoechst 33342 nuclear staining score, Jurkat ([1]; conc 3) | Hoechst 33342 nuclear staining score, MRC5 ([1]; conc 0.1) | Hoechst 33342 nuclear staining score, MRC5 ([1]; conc 0.3) | Hoechst 33342 nuclear staining score, MRC5 ([1]; conc 1) | Hoechst 33342 nuclear staining score, MRC5 ([1]; conc 3) | further results |
| --- | --- | --- | --- | --- | --- | --- | --- | --- | --- | --- | --- | --- | --- | --- | --- | --- | --- | --- | --- | --- | --- |
| COc1cc(-c2cc(-c3cccnc3)cn2S(=O)(=O)c2ccc([N+](=O)[O-])cc2)cc(OC)c1OC [Example 92] | 0 | 0 | 0 | 1 (weak activity comprising less than 50% of the cells) | 0 | 0 | 0 | 0 | 0 | 0 | 0 | 2 (strong activity comprising more than 50% of the cells) | 0 | 0 | 0 | 2 (strong activity comprising more than 50% of the cells) | 0 | 0 | 0 | 0 | Hoechst 33342 nuclear staining score, PBLs ([1]; conc 0.1): 0; Hoechst 33342 nuclear staining score, PBLs ([1]; conc 0.3): 0; Hoechst 33342 nuclear staining score, PBLs ([1]; conc 1): 0; Hoechst 33342 nuclear staining score, PBLs ([1]; conc 3): 0; IC50 (Jily): > 1000 nM; IC50 (MRC5): > 1000 nM; IC50 (HeLa): > 1000 nM; IC50 (Jurkat): > 1000 nM |
| COc1cc(-c2cc(-c3cccnc3)cn2S(=O)(=O)c2ccc(N)cc2)cc(OC)c1OC [Example 93] | 0 | 0 | 0 | 0 | 0 | 0 | 0 | 0 | 0 | 0 | 0 | 0 | 0 | 0 | 0 | 0 | 0 | 0 | 0 | 0 | Hoechst 33342 nuclear staining score, PBLs ([1]; conc 0.1): 0; Hoechst 33342 nuclear staining score, PBLs ([1]; conc 0.3): 0; Hoechst 33342 nuclear staining score, PBLs ([1]; conc 1): 0; Hoechst 33342 nuclear staining score, PBLs ([1]; conc 3): 0; IC50 (Jily): > 1000 nM; IC50 (MRC5): > 1000 nM; IC50 (HeLa): > 1000 nM; IC50 (Jurkat): > 1000 nM |
| COc1ccc(S(=O)(=O)n2cc(CNc3ccc(N4CCOCC4)cc3)cc2-c2cc(OC)c(OC)c(OC)c2)cc1 [Example 94, 1-p-Methoxyphenylsulfonyl-4-p-morpholinophenylaminomethyl-2-(3,4,5-trimethoxyphenyl)-pyrrole] | 0 | 2 (strong activity comprising more than 50% of the cells) | 2 (strong activity comprising more than 50% of the cells) | 2 (strong activity comprising more than 50% of the cells) | 0 | 2 (strong activity comprising more than 50% of the cells) | 2 (strong activity comprising more than 50% of the cells) | 2 (strong activity comprising more than 50% of the cells) | 0 | 2 (strong activity comprising more than 50% of the cells) | 2 (strong activity comprising more than 50% of the cells) | 2 (strong activity comprising more than 50% of the cells) | 0 | 2 (strong activity comprising more than 50% of the cells) | 2 (strong activity comprising more than 50% of the cells) | 2 (strong activity comprising more than 50% of the cells) | 0 | 0 | 0 | 2 (strong activity comprising more than 50% of the cells) | Hoechst 33342 nuclear staining score, PBLs ([1]; conc 0.1): 0; Hoechst 33342 nuclear staining score, PBLs ([1]; conc 0.3): 0; Hoechst 33342 nuclear staining score, PBLs ([1]; conc 1): 0; Hoechst 33342 nuclear staining score, PBLs ([1]; conc 3): 0; IC50 (Jily): < 200 nM; IC50 (MRC5; Homo sapiens): < 200 nM; IC50 (HeLa; Homo sapiens): < 200 nM; IC50 (Jurkat; Homo sapiens): < 200 nM |
| COc1ccc(S(=O)(=O)n2cc(CNc3ccc(N4CCOCC4)cc3)cc2-c2cc(OC)ccc2OC)cc1 [Example 95] | 0 | 0 | 0 | 2 (strong activity comprising more than 50% of the cells) | 0 | 0 | 0 | 2 (strong activity comprising more than 50% of the cells) | 0 | 0 | 0 | 2 (strong activity comprising more than 50% of the cells) | 0 | 0 | 0 | 2 (strong activity comprising more than 50% of the cells) | 0 | 0 | 0 | 0 | Hoechst 33342 nuclear staining score, PBLs ([1]; conc 0.1): 0; Hoechst 33342 nuclear staining score, PBLs ([1]; conc 0.3): 0; Hoechst 33342 nuclear staining score, PBLs ([1]; conc 1): 0; Hoechst 33342 nuclear staining score, PBLs ([1]; conc 3): 0; IC50 (Jily): > 1000 nM; IC50 (MRC5): > 1000 nM; IC50 (HeLa): > 1000 nM; IC50 (Jurkat): > 1000 nM |
| COc1ccc(S(=O)(=O)n2cc(CNc3ccc(N4CCOCC4)cc3)cc2-c2ccc(OC)cc2OC)cc1 [Example 96] | 0 | 0 | 0 | 0 | 0 | 0 | 0 | 0 | 0 | 0 | 0 | 1 (weak activity comprising less than 50% of the cells) | 0 | 0 | 0 | 0 | 0 | 0 | 0 | 0 | Hoechst 33342 nuclear staining score, PBLs ([1]; conc 0.1): 0; Hoechst 33342 nuclear staining score, PBLs ([1]; conc 0.3): 0; Hoechst 33342 nuclear staining score, PBLs ([1]; conc 1): 0; Hoechst 33342 nuclear staining score, PBLs ([1]; conc 3): 0; IC50 (Jily): > 1000 nM; IC50 (MRC5): > 1000 nM; IC50 (HeLa): > 1000 nM; IC50 (Jurkat): > 1000 nM |
| COc1ccc(S(=O)(=O)n2cc(CNc3ccc(N4CCOCC4)cc3)cc2-c2ccccc2OC)cc1 [Example 97] | 0 | 0 | 0 | 0 | 0 | 0 | 0 | 0 | 0 | 0 | 0 | 0 | 0 | 0 | 0 | 0 | 0 | 0 | 0 | 0 | Hoechst 33342 nuclear staining score, PBLs ([1]; conc 0.1): 0; Hoechst 33342 nuclear staining score, PBLs ([1]; conc 0.3): 0; Hoechst 33342 nuclear staining score, PBLs ([1]; conc 1): 0; Hoechst 33342 nuclear staining score, PBLs ([1]; conc 3): 0; IC50 (Jily): > 1000 nM; IC50 (MRC5): > 1000 nM; IC50 (HeLa): > 1000 nM; IC50 (Jurkat): > 1000 nM |
